{"source": "patent US20120208882A1", "about": "“Organic Compounds” (priority 2005, published 2012)", "key": {"[1]": {"tested_on": "Guinea pig tracheal potential difference", "test": "Tracheal potential difference (in vivo)", "conditions": "for ED50: Cavia porcellus, inhaled or nasal, i.t., read-out: GPig tracheal PD in vivo (ED50)", "description": "Biochemical assays: Recombinant human prostasin and matriptase and guinea pig prostasin are generated according to methods described in Shipway et al., Biochemical and Biophysical Research Communications 2004; 324(2):953-63). The recombinant enzymes are incubated in an electrolyte buffer test compounds or vehicle in a suitable multiple well assay plate such as a 96 or 384 well plate. At a defined time after the mixing of enzyme with compound. Or vehicle, a suitable fluorescent peptide substrate is added to the assay mixture. As substrate becomes cleaved by the active enzyme; fluorescence (measured using a suitable fluorescence plate reader) increases and the rate of turnover of substrate (i.e. enzyme activity) can be quantified and thus the inhibitory effect of any test compound. The efficacy of test compounds is expressed as the concentration that induces a 50% attenuation in the enzyme activity (Ki). Epithelial ion transport: Human bronchial epithelial cells are cultured according to methods described in Danahay et al., American Journal of Physiology Lung Cell Molecular Physiology 2002; 282(2):L226-36). When suitably differentiated (days 14-21 after establishing an apical-air interface) epithelial cells are treated with either vehicle, aprotinin (200 μg/ml) or test compound for 90 minutes. Epithelia are then, placed into Ussing Chambers as described in Danahay et al., American Journal of Physiology Lung Cell Molecular Physiology 2002; 282(2):L226-36) maintaining the concentration of vehicle, aprotinin or test compound on the apical side of the epithelia. Short circuit current (ISC) is then measured by voltage clamping the epithelia to zero millivolts. The amiloride-sensitive ISC is then measured by the addition of amiloride (10 μM) to the apical surface of the epithelia. The potency of the test compound is expressed as the concentration inducing a 50% inhibition of the total aprotinin-sensitive component of the amiloride-sensitive ISC. Tracheal potential difference (in vivo): Guinea pigs are anaesthetized using a short acting inhalation anaesthesia such as halothane and N20. Whilst under short acting anaesthesia an oral gavage needle is inserted into the trachea via the oropharangeal route. Once inside the trachea, a small volume (50-200 μl) of vehicle or test compound, in a suitable aqueous-based diluent, is instilled into the airways. Animals then recover and become fully ambulatory. Alternatively test compounds can be administered to animals using aerosol or dry powder dosing. At a defined time after dosing, the animals are surgically anaesthetized using a suitable anaesthesia such as ketamine and xylazine. The trachea is then exposed and a plastic agar bridge electrode is inserted into the tracheal lumen. A reference electrode is also inserted into the layers, of muscle in the animal's neck. The tracheal potential difference, is then measured using a suitable high impedance voltmeter as described in Takahashi et al., Toxicol Appl Pharmacol. 1995; 131(1):31-6. The potency of the test compound is expressed as the dose inducing a 50% reduction in the sensitive-component of the tracheal potential difference."}, "[2]": {"tested_on": "Human bronchial epithelial cells (amiloride-sensitive, ENaC-mediated short circuit current)", "test": "Epithelial ion transport: amiloride-sensitive short circuit current in Ussing chambers", "assay_type": "cell-based", "conditions": "Epithelial cell, 1.5 h, 50% inhibition of aprotinin-sensitive component of amiloride-sensitive ISC, 90 minutes treatment, read-out: HBEC (IC50)", "description": "(§1) Biochemical assays: Recombinant human prostasin and matriptase and guinea pig prostasin are generated according to methods described in Shipway et al., Biochemical and Biophysical Research Communications 2004; 324(2):953-63). The recombinant enzymes are incubated in an electrolyte buffer test compounds or vehicle in a suitable multiple well assay plate such as a 96 or 384 well plate. At a defined time after the mixing of enzyme with compound. Or vehicle, a suitable fluorescent peptide substrate is added to the assay mixture. As substrate becomes cleaved by the active enzyme; fluorescence (measured using a suitable fluorescence plate reader) increases and the rate of turnover of substrate (i.e. enzyme activity) can be quantified and thus the inhibitory effect of any test compound. The efficacy of test compounds is expressed as the concentration that induces a 50% attenuation in the enzyme activity (Ki). […] Short circuit current (ISC) is then measured by voltage clamping the epithelia to zero millivolts. The amiloride-sensitive ISC is then measured by the addition of amiloride (10 μM) to the apical surface of the epithelia. […] The tracheal potential difference, is then measured using a suitable high impedance voltmeter as described in Takahashi et al., Toxicol Appl Pharmacol. 1995; 131(1):31-6. […]"}, "[3]": {"target": "rGPig-prostasin (Cavia porcellus, UniProt A0A286XIW9)", "sequence (A0A286XIW9 1-343)": "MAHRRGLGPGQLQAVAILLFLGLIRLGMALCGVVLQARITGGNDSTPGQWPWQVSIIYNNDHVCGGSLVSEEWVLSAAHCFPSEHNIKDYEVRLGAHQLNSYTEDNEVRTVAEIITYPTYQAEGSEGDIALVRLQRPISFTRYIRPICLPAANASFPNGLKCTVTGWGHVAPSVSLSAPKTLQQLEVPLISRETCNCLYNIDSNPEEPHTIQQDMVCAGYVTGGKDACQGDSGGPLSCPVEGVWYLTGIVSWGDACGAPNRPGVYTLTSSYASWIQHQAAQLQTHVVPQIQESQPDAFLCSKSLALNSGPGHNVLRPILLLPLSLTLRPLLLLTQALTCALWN", "test": "Biochemical assay, recombinant guinea pig prostasin, fluorescent peptide substrate", "description": "as §1"}, "[4]": {"target": "T1, rh-prostasin (Homo sapiens, UniProt Q16651)", "T1 construct": "made in house", "T1 sequence (Q16651 33-343)": "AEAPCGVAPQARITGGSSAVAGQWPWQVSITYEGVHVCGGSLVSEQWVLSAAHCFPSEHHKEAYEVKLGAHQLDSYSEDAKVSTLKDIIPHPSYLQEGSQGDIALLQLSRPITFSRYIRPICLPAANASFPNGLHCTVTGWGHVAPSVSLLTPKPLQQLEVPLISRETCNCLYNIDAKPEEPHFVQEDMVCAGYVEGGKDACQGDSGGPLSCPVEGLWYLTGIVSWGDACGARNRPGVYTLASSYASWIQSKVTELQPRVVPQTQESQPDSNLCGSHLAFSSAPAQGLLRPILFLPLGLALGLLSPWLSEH", "test": "Biochemical assay, recombinant human prostasin, fluorescent peptide substrate", "description": "as §1"}, "[5]": {"target": "T2, rh-matriptase (Homo sapiens, UniProt Q9Y5Y6)", "T2 construct": "made in house", "T2 sequence (Q9Y5Y6 1-855)": "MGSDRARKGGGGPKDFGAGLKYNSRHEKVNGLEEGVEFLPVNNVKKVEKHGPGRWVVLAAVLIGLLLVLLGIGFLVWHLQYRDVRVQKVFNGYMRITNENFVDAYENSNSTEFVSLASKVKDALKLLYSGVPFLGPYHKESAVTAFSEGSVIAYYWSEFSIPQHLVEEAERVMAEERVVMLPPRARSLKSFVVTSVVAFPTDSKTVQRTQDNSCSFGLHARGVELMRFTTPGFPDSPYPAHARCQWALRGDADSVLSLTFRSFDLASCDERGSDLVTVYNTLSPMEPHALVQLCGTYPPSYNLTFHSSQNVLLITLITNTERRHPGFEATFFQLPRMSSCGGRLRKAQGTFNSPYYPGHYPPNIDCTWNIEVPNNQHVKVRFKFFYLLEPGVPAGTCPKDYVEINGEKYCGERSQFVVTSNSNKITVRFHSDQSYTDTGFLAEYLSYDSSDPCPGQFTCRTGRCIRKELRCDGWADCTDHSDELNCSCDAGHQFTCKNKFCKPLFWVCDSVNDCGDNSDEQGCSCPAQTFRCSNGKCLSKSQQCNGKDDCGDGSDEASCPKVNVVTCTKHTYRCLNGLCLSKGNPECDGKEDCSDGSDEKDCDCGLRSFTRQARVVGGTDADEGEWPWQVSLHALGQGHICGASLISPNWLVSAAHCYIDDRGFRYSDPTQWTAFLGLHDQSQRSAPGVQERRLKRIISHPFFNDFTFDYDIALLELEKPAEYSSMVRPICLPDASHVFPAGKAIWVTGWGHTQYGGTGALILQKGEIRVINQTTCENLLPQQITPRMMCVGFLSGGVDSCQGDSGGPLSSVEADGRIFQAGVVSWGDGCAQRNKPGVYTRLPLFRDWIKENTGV", "test": "Biochemical assay, recombinant human matriptase, fluorescent peptide substrate", "description": "as §1"}}, "note": "Counter-ions that a name gives are not always drawn. Like-named read-outs stand apart in the source and are kept apart here.", "data": [{"molecule": "CN(C)C(=O)COC(=O)Cc1ccc(OC(=O)c2ccc(NC(=N)N)cc2)cc1", "note": "[Camostat mesylate, N,N-dimethyl-carbamoylmethyl-p-(p-guanidinobenzoyloxy)phenylacetate]", "values": [{"measurement": "Mean absolute tracheal potential difference (± s.e. mean)", "setting": "[1]; 2 hr, 1 μg/kg intra-tracheal", "result": "−10.0 ± 0.7"}, {"measurement": "Mean absolute tracheal potential difference (± s.e. mean)", "setting": "[1]; 2 hr, 3 μg/kg intra-tracheal", "result": "−7.3 ± 0.5"}, {"measurement": "Mean absolute tracheal potential difference (± s.e. mean)", "setting": "[1]; 2 hr, 10 μg/kg intra-tracheal", "result": "−6.4 ± 0.5"}, {"measurement": "Mean absolute tracheal potential difference (± s.e. mean)", "setting": "[1]; 2 hr, 30 μg/kg intra-tracheal", "result": "−5.3 ± 0.3"}, {"measurement": "Mean absolute tracheal potential difference (± s.e. mean)", "setting": "[1]; 2 hr, 100 μg/kg intra-tracheal", "result": "−4.7 ± 0.5"}, {"measurement": "Mean absolute tracheal potential difference (± s.e. mean)", "setting": "[1]; 5 hr, 3 μg/kg intra-tracheal", "result": "−10.8 ± 1.0"}, {"measurement": "Mean absolute tracheal potential difference (± s.e. mean)", "setting": "[1]; 5 hr, 10 μg/kg intra-tracheal", "result": "−9.7 ± 1.5"}, {"measurement": "Mean absolute tracheal potential difference (± s.e. mean)", "setting": "[1]; 5 hr, 30 μg/kg intra-tracheal", "result": "−7.5 ± 0.4"}, {"measurement": "Mean absolute tracheal potential difference (± s.e. mean)", "setting": "[1]; 5 hr, 100 μg/kg intra-tracheal", "result": "−6.5 ± 0.3"}, {"measurement": "Mean absolute tracheal potential difference (± s.e. mean)", "setting": "[1]; 5 hr, 300 μg/kg intra-tracheal", "result": "−5.2 ± 0.3"}, {"measurement": "Mean absolute tracheal potential difference (± s.e. mean)", "setting": "[1]; 5 hr, 1000 μg/kg intra-tracheal", "result": "−5.7 ± 0.4"}, {"measurement": "ED50", "setting": "[1]; 2 hr after dosing", "result": 0.0033, "unit": "mg/kg"}, {"measurement": "ED50", "setting": "[1]; 5 hr after dosing", "result": 0.026, "unit": "mg/kg"}, {"measurement": "IC50", "setting": "[2]", "result": 50, "unit": "nM"}, {"measurement": "Ki", "setting": "[3]", "result": 98, "unit": "nM"}, {"measurement": "Ki", "setting": "[4]", "result": 429, "unit": "nM"}, {"measurement": "Ki", "setting": "[5]", "result": 5, "unit": "nM"}]}]}
